Results from patent US10351548B2, “2-oxo-1,2-dihydropyridine-3-carboxamide compounds and their use as inhibitors of PDK1” (INTERNATIONAL SOCIETY FOR DRUG DEVELOPMENT S.R.L., priority 2015, dated 2019).
Where two headings read alike, the source gives them in different places.

Experiments:
Format in all cases: cell-based, human
U87MG cells [1] = assay: U87MG cell proliferation, MTS assay; conditions: Homo sapiens, U-87 MG, 72 h, MTS assay
Method: (§1) The U87MG cell line was obtained from the National Institute for Cancer Research of Genoa (Italy) and cultured in DMEM 10% FBS and 2 mM glutamine. To isolate GSCs, approximately 2.0×10^6 cells were suspended in 1 mL of a defined serum-free Neural Stem Cell (NSC) medium (Daniele, S., et al., Modulation of A1 and A2B adenosine receptor activity: a new strategy to sensitise glioblastoma stem cells to chemotherapy. Cell death & disease, 2014. 5(11): p. e1539). After 3-4 days of culture, the neurospheres were collected, suspended in NSC medium, dissociated into single cells, and plated for the assays. For the long-term treatment of cells, NSC or complete medium containing drugs was replaced every two to three days.
(§2) The human U87MG cells or GSCs were seeded at a density of 3×10^3 cells/well. After 24 h, the cells were treated from one to seven days with fresh growth medium containing different concentrations of SA16, SA23 or IB35. Following the treatment period, cell proliferation was determined using the MTS assay according to manufacturer's instruction. The absorbance of formazan at […] was measured in a colorimetric assay with an automated plate reader (Victor Wallac 2, Perkin Elmer). The results were calculated by subtracting the mean background from the values obtained from each evaluation and were expressed as the percentage of the control (untreated cells). Sigmoid dose-response curve was generated, from which the IC50 values were derived.
As representative GBM cell line, the above U87MG cells were used; this human cell line resulted an appropriate model to study the effects of PDK1 inhibition, because it is deficient for the tumour suppressor phosphatase and tensin homologue (PTEN), a negative regulator of the PI3K/AKT pathway (Wang, S. I., et al., Somatic mutations of PTEN in glioblastoma multiforme. Cancer research, 1997. 57(19): p. 4183-4186). To examine the effects of SA16, SA23 and IB35 on GBM cell growth/survival, U87MG cells were incubated with different concentrations of the new compounds (1 nM-10 μM) for 24 and 72 h. Specifically, U87MG cells were treated in complete medium with different concentrations of SA16, SA23 or IB35 (1 nM-10 μM) for 24 h (A) or 72 h (B). At the end of treatment, cell proliferation was measured using the MTS assay. The data are expressed as a percentage with respect to that of untreated cells (control), which was set to 100%, and are the mean values±SEM of three independent experiments, each performed in duplicate. The significance of the differences reported in FIGS. 1 and 2 was determined with a one-way ANOVA with Bonferroni post-test (* p<0.05, **p<0.01, *** p<0.001 vs. control cells).

[2] = system: GSCs isolated from U87MG cells; assay: GSC proliferation, MTS assay; conditions: Homo sapiens, U-87 MG, 168 h; seven days of treatment, MTS assay
Method: as §1, §2
The inhibition of PDK1 has been reported as potentially effective therapeutic approach to reduce self-renewal and propagation of GSCs (Signore, M., et al., Combined PDK1 and CHK1 inhibition is required to kill glioblastoma stem-like cells in vitro and in vivo. Cell death & disease, 2014. 5(5): p. e1223). On this basis, the effects of SA16, SA23 and IB35 on GSCs, isolated from U87MG cells as previously reported, were evaluated (Daniele, S., et al., Modulation of A1 and A28 adenosine receptor activity: a new strategy to sensitise glioblastoma stem cells to chemotherapy. Cell death & disease, 2014. 5(11): p. e1539). U87MG-derived GSCs were incubated with the indicated concentrations of IB35, SA23 or SA16 for four days (FIG. 8) or seven days (FIG. 9). At the end of the treatment periods, cell proliferation was measured using the MTS assay. The data were expressed as a percentage with respect to that of untreated cells (control), which was set to 100%, and are the mean values±SEM of three independent experiments, each performed in duplicate. IC50 values after seven days of treatment were calculated from sigmoid dose-response curve (FIG. 9). The significance of the differences was determined with a one-way ANOVA with Bonferroni post-test (** p<0.01, *** p<0.001 vs. control).

U87MG cells [3] = assay: Annexin V and 7-AAD staining in U87MG cells (apoptosis); conditions: 10 μM, 72 h
Method: Dual staining with Annexin V coniugated to fluorescein-isothiocyanate (FITC) and 7-amino-actinomysin (7-AAD) was performed using the commercially available kit (Muse Annexin V and Dead Cell Kit; Merck KGaA, Darmstadt, Germany). U87MG cells or GSCs were treated with DMSO (control), SA16, SA23 or IB35 for 72 h or seven days, respectively. At the end of the treatment periods, the percentages of living, apoptotic and dead cells were acquired and analysed by Muse™ Cell Analyzer as previously described (Daniele, S., et al., Combined inhibition of AKT/mTOR and MDM2 enhances Glioblastoma Multiforme cell apoptosis and differentiation of cancer stem cells. Sci. Rep., 2015. 5.).
It was then investigated whether the reduction in cell proliferation elicited by the PDK1 inhibitors could be associated with apoptosis. U87MG cells were treated for 72 h with DMSO (control), or 10 μM SA16, SA23 or IB35. At the end of the treatment period, the cells were collected, and the level of phosphatidylserine externalisation was evaluated using the Annexin V-staining protocol, as described above (FIG. 3). In FIG. 4 the data are expressed as the percentage of apoptotic cells (the data for the early-stage apoptotic cells shown in white, and the data for the late-stage apoptotic/necrotic cells shown in grey) versus the total number of cells. The data shown represented the mean±SEM of three different experiments. The significance of the differences was determined with a one-way ANOVA with Bonferroni post-test (*** p<0.001 vs. control).

[4] = system: AKT phosphorylation at Thr308 in U87MG cells; assay: PDK1 activity in U87MG cells, (T308)AKT phosphorylation ELISA
Method: (§3) U87MG cells were cultured in 96-well microplates (5.000 cells/well), and treated for different times with 10 μM SA16, SA23 or IB35. At the end of the treatment period, the GSCs were centrifuged at 500×g for 3 minutes; cells were washed twice using fresh saline, and rapidly fixed with 4% (for adherent U87MG cells) or 8% (for suspension GSCs) formaldehyde to preserve activation of specific protein modification. The activity of PDK1 was assessed measuring the levels of phosphorylated AKT on Thr308, using a specific primary antibodies. The subsequent incubation with a secondary HRP-conjugated antibody and the developing solution allowed the colorimetric quantification of the levels of phosphorylated protein. The relative number of cells in each well was then determined using the Crystal-Violet assay. The results were calculated by subtracting the mean background value from the values obtained under each test condition: values were normalised to the number of cells in each well and were expressed as the percentages of the control (untreated cells) values.
280(4): p. 1107-1115). […] At the end of the treatment periods, the levels of (T308)AKT phosphorylation was evaluated using an ELISA kit, as described above. The data reported in FIG. 5 were expressed as the percentage of phosphorylated (T308)AKT relative to those of untreated cells (control), which were set at 100%, and were the mean values±SEM of three independent experiments performed in triplicate.

[5] = system: AKT phosphorylation at Thr308 in GSCs; assay: PDK1 activity in GSCs, (T308)AKT phosphorylation ELISA
Method: as §3
The effects of the new compounds on PDK1 activity were investigated by ELISA assays also in GSCs. U87MG-derived CSCs were treated for the indicated times (0-120 min) with NSC medium containing DMSO (control), or 10 μM IIB35, SA23 or SA16. At the end of the treatment periods, the levels of AKT phosphorylation on Thr308 were evaluated using an ELISA assay, as above described. The data were expressed as the percentage of phosphorylated AKT relative to those of untreated cells (control), which were set at 100%, and were the mean values±SEM of three independent experiments performed in triplicate. The data are represented in FIG. 12. The significance of differences was performed using one-way ANOVA with Bonferroni post-test (* p<0.05, ** p<0.01, *** p<0.001 vs. control).

IC50 (U87MG cells [1]; read-out: IC50 U87MG): 2050 ± 190 nM
IC50 (U87MG cells [1]; read-out: IC50 U87MG cell proliferation): 2050 ± 190 nM
IC50 [2]: 5.47 ± 0.1 nM
SMILES: O=C1Nc2ccc(NC(=O)[C@H](NC(=O)c3cccn(Cc4ccc(F)c(F)c4)c3=O)c3ccccc3)cc2/C1=C/c1cnc[nH]1 [SA16, (Z)—(R)—N-(2-((3-((1H-imidazol-5-yl)methylene)-2-oxoindolin-5-yl)amino)-2-oxo-1-phenylethyl)-1-(3,4-difluorobenzyl)-2-oxo-1,2-dihydropyridine-3-carboxamide]
phosphatidylserine externalization (early and late apoptosis/death) (U87MG cells [3]): significant phosphatidylserine externalization
inhibition at 10 µM ([4]; Homo sapiens, U-87 MG, U87MG cells, read-out: peak of inhibition (percentage of PDK1 inhibition)): 33.3 ± 4.5%
inhibition of AKT phosphorylation at Thr308 ([4]; U87MG, 10 μM, 0-120 min): biphasic kinetic
inhibition of AKT phosphorylation at Thr308 ([5]; 10 μM, 0-120 min): biphasic kinetic
inhibition at 10 µM ([5]; Homo sapiens, read-out: peak of inhibition (percentage of PDK1 inhibition)): 74.8 ± 3%
